Measured values published in publication PMC5748433, “Study on the effect of EMD386088, a 5-HT6 receptor partial agonist, in enhancing the anti-immobility action of some antidepressants in rats” (Naunyn-Schmiedeberg's Archives of Pharmacology, 2017).

Assays:
GABAA = tested on: GABAA; parameters: method as in Jastrzębska-Więsek et al. [2013]; settings: ref Jastrzębska-Więsek et al. [2013]; cited from earlier work
[1] = tested on: dopamine transporter (DAT); parameters: method as in Jastrzębska-Więsek et al. [2016]; settings: functional in vitro study; ref Jastrzębska-Więsek et al. [2016]; cited from earlier work
recombinant human CYP3A4 = recombinant human CYP3A4 (Homo sapiens, UniProt P08684); settings: recombinant human CYP3A4, P450-Glo, 0.025 to 25 μM
recombinant human CYP3A4, sequence (P08684 whole entry): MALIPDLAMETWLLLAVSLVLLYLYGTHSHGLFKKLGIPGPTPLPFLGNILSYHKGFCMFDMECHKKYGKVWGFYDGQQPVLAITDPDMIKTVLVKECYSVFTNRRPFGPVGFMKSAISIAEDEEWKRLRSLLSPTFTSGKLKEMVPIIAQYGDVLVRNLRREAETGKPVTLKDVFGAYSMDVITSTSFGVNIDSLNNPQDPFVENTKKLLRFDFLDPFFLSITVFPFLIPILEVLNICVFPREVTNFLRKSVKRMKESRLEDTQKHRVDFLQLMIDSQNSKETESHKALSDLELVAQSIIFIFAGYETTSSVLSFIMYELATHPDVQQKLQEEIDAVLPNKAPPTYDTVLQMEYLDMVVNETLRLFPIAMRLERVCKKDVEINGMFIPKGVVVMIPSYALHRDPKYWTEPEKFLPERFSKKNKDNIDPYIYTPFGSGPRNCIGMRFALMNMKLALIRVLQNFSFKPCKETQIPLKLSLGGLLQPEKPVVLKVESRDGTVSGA
Method: The enzymatic reactions were performed in white polystyrene, flat-bottom Nunc™ MicroWell™ 96-Well Microplates (Thermo Scientific, Waltham, MA USA). The luminescence signal was measured with a microplate reader in luminescence mode (EnSpire, PerkinElmer, Waltham, MA USA).

## Cc1[nH]c2ccc(Cl)cc2c1C1=CCNCC1.Cl [EMD386088, 5-chloro-2-methyl-3-(1,2,3,6-tetrahydro-4-pyridinyl)-1H-indole hydrochloride]
GABAA
  affinity for GABAA: no affinity
[1]
  affinity for dopamine transporter (DAT): significant affinity
Recombinant human CYP3A4
  influence on CYP3A4 activity: did not influence on CYP3A4 activity
